Assay results from PMC3688767, “Lipoprotein FtsB in Streptococcus pyogenes Binds Ferrichrome in Two Steps with Residues Tyr137 and Trp204 as Critical Ligands” (PLoS ONE, 2013).
“And” between values parts separate entries of the source, which are not always exact repeats. Equal values may be shown once. Square brackets hold non-standard residues; d marks the D form. Peptide text beside a SMILES is read from it. Orn(N5-OH,N5-Ac) = CC(=O)N(O)CCC[C@H](N)C(=O)O

Assays:
WT FtsB [1] = target: T1, WT FtsB (Streptococcus pyogenes, UniProt Q9A198); assay: Stopped-flow fluorescence binding kinetics; details: WT FtsB 10 µM mixed with Fch 1∶1, 25°C, pH 7.2, second-order exponential fit; listed as Fch
Experimental: (§1) Binding kinetics experiments were carried out using a stopped-ﬂow ﬂuorescence spectrometer (Applied Photophysics, SX200) at 25°C. The excitation wavelength was 280 nm and the ﬂuorescence emission was measured using a high-pass filter with a 320 nm cutoff. Binding reaction was initiated by mixing 10 µM FtsB in 20 mM Tris-HCl (pH 7.2) with Fch in a 1∶1 ratio. Kinetics experiments were performed 5 times, and data were analyzed with a second-order or first-order exponential function offered by Origin 7.5 software.

FtsB mutant Y137A [2] = target: T2, FtsB mutant Y137A (Streptococcus pyogenes, UniProt Q9A198, Y137A); assay: Stopped-flow fluorescence binding kinetics; details: Y137A 10 µM mixed with Fch 1∶1, 25°C, pH 7.2, first-order exponential fit; listed as Fch
T2 sequence (Q9A198 21-310 Y137A): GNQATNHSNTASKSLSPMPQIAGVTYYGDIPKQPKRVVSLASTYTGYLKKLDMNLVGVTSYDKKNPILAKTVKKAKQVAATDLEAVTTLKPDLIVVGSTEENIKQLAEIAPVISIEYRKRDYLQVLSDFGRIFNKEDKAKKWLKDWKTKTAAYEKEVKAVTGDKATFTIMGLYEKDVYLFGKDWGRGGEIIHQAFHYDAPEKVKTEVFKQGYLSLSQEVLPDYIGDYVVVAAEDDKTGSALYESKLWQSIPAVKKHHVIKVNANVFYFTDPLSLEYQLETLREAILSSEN
Experimental: as §1

WT FtsB [3] = target: T1, WT FtsB; assay: Fluorescence quenching titration of ferrichrome binding, Hill plot
Experimental: (§2) The interaction between FtsB and Fch was investigated in a fluorescence spectroﬂuorimeter (Hitachi F7000), in which the excitation wavelength was 280 nm (slit width of 2.5 nm) and the emission wavelength was between 290 and 500 nm (slit width of 10 nm). Aliquots of Fch (1 mM stock solution) were gradually added to 1 mL FtsB solution (1.5 µM, in 20 mM Tris–HCl, pH 7.2). Fluorescence spectra were collected after each titration until the spectra were stable. The data were analyzed with Hill plot in Origin 7.5 to acquire the binding capability and dissociation constant (K d). pH dependent Fch binding with FtsB was also examined in the same buffer with pH 3.2–9.2.

FtsB mutant Y287A = target: T3, FtsB mutant Y287A (Streptococcus pyogenes, UniProt Q9A198, Y287A); assay: as above; details: 20 mM Tris-HCl, pH 7.2, read-out: Dissociation constant K d
T3 sequence (Q9A198 21-310 Y287A): T2 sequence (Q9A198 21-310 Y137A)
Experimental: (§3) E120A, Y137A, W204A and Y287A mutants were constructed by QuikChange mutagenesis kit (Stratagene) with the wild-type ftsb plasmid as a template, using primers summarized in Table 1. To further study the collective contribution of Glu120, Tyr137, Trp204 and Tyr287 to the Fch binding of FtsB, a tetra-point mutation E120A/Y137A/W204A/Y287A was produced by mutating these four amino acids to alanine simultaneously. The PCR reactions were performed as follows: denaturation at 95°C for 30 s, followed by 16 cycles with denaturation at 95°C for 30 s, annealing at 55°C for 1 min, and extension at 68°C for 6 min [14]. The mutant plasmids were transformed into E. coli XL1-blue for sequencing (Invitrogen). The mutant plasmid with correct sequence was transformed into E. coli BL21 (DE3) star competent cells for subsequent expression. Expression and purification of the FtsB mutants were carried out by following the same protocol as for the wild-type protein.
as §2

FtsB mutant W204A = target: T4, FtsB mutant W204A (Streptococcus pyogenes, UniProt Q9A198, W204A); assay: as above
T4 sequence (Q9A198 21-310 W204A): T2 sequence (Q9A198 21-310 Y137A)
Experimental: as §3, §2

FtsB mutant E120A = target: T5, FtsB mutant E120A (Streptococcus pyogenes, UniProt Q9A198, E120A); assay: as above; details: 20 mM Tris-HCl, pH 7.2, read-out: Dissociation constant K d
T5 sequence (Q9A198 21-310 E120A): T2 sequence (Q9A198 21-310 Y137A)
Experimental: as §3, §2

[4] = target: T6, FtsB Tetra mutant E120A/Y137A/W204A/Y287A (Streptococcus pyogenes, UniProt Q9A198, E120A/W204A/Y137A/Y287A); assay: as above; details: 20 mM Tris-HCl, pH 7.2, may be no-specific interaction, read-out: Dissociation constant K d
T6 sequence (Q9A198 21-310 E120A/Y137A/W204A/Y287A): T2 sequence (Q9A198 21-310 Y137A)
Experimental: as §3, §2

FtsB mutant Y137A [5] = target: T2, FtsB mutant Y137A; assay: as above
Experimental: as §3, §2

In the case of CC(=O)N([O-])CCC[C@@H]1NC(=O)CNC(=O)CNC(=O)CNC(=O)[C@H](CCCN([O-])C(C)=O)NC(=O)[C@H](CCCN([O-])C(C)=O)NC1=O.[Fe+3] [ferrichrome, Ferrichrome] (cyclo(GGG[Orn(N5-OH,N5-Ac)][Orn(N5-OH,N5-Ac)][Orn(N5-OH,N5-Ac)])), the “fast rate constant k1” value (WT FtsB [1]) is reported as 180.2 ± 5.4 s⁻¹ and 180 s⁻¹, the “slow rate constant k2” value (WT FtsB [1]) is reported as 18.7 ± 1.3 s⁻¹ and the rate constant k (FtsB mutant Y137A [2]) is reported as 191.6 ± 7.6 s⁻¹ and 191 s⁻¹. For the same compound, the Kd (WT FtsB [3]; WT FtsB 1.5 µM, 20 mM Tris-HCl, pH 7.2, read-out: Dissociation constant K d) was 400 ± 20 nM, the “pH of maximal binding” value (WT FtsB [3]; pH dependence examined at pH 3.2–9.2) was 7.2 and the Kd (FtsB mutant Y287A) was 520 ± 20 nM. For the same compound, the “folds higher K d in comparison with WT” value (FtsB mutant W204A; W204A mutant vs WT FtsB) was 10–20 folds, the Kd (FtsB mutant W204A; W204A mutant, 20 mM Tris-HCl, pH 7.2, read-out: Dissociation constant K d) was 7050 ± 80 nM and the Kd (FtsB mutant E120A) was 520 ± 30 nM. The Kd [4] was 43900 ± 2500 nM, the “folds higher K d in comparison with WT” value (FtsB mutant Y137A [5]; Y137A mutant vs WT FtsB) was 10–20 folds and the Kd (FtsB mutant Y137A [5]; Y137A mutant, 20 mM Tris-HCl, pH 7.2, read-out: Dissociation constant K d) was 3700 ± 100 nM.
